Measured values published in ChEMBL document CHEMBL4715770, “Inhibition of Low Molecular Weight Protein Tyrosine Phosphatase by an Induced-Fit Mechanism” (J Med Chem, 2016).
pIC50: −log10 of the molar value.

Columns and labels:
[1] = molecular target: Receptor-type tyrosine-protein phosphatase mu (Homo sapiens, UniProt P28827); experiment: Inhibition of His-tagged PTPmu (unknown origin) expressed in Escherichia coli BL21 cells using para-nitrophenyl phosphate as substrate incubated for 5 to 10 mins by microplate reader based spectrophotometric analysis
Chain of Receptor-type tyrosine-protein phosphatase mu (P28827 whole entry): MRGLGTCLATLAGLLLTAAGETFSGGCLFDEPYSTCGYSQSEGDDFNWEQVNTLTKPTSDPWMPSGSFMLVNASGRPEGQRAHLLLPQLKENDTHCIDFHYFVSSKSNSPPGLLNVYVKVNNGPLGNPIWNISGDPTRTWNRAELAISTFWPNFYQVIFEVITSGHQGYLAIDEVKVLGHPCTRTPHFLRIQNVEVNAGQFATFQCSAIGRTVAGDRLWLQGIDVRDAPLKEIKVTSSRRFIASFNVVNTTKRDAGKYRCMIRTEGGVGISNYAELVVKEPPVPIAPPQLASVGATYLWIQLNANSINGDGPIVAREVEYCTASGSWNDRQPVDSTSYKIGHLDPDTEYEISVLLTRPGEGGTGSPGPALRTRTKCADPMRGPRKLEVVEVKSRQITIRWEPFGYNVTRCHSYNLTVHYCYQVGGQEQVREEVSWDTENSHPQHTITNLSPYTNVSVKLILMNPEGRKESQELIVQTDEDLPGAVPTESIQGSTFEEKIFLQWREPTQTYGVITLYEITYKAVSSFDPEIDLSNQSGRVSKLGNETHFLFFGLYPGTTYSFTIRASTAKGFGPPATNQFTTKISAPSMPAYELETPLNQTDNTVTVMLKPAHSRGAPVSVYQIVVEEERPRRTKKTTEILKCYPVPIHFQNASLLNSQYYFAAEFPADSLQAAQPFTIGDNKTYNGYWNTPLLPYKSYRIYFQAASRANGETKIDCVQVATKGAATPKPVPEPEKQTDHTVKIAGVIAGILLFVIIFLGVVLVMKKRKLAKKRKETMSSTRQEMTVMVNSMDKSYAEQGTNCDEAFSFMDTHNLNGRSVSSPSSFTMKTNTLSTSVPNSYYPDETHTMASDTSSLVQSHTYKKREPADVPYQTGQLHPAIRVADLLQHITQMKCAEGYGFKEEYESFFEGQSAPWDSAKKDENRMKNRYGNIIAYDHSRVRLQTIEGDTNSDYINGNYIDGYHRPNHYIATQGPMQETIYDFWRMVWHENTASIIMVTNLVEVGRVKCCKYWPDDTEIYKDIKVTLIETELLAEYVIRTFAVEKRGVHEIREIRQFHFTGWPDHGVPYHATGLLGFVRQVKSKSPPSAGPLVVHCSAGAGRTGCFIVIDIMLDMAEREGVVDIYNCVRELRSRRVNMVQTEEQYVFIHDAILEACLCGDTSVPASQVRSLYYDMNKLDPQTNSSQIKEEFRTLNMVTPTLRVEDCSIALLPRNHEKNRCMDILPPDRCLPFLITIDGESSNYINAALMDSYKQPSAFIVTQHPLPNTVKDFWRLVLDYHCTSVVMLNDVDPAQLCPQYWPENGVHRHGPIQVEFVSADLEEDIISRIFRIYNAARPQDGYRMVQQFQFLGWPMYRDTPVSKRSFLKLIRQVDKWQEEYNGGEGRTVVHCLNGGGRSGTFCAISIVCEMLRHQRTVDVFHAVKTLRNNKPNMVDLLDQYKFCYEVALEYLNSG

[2] = molecular target: Tyrosine-protein phosphatase non-receptor type 13 (Homo sapiens, UniProt Q12923); experiment: Inhibition of His-tagged FAP1 (unknown origin) expressed in Escherichia coli BL21 cells using para-nitrophenyl phosphate as substrate incubated for 5 to 10 mins by microplate reader based spectrophotometric analysis
Chain of Tyrosine-protein phosphatase non-receptor type 13 (Q12923 whole entry): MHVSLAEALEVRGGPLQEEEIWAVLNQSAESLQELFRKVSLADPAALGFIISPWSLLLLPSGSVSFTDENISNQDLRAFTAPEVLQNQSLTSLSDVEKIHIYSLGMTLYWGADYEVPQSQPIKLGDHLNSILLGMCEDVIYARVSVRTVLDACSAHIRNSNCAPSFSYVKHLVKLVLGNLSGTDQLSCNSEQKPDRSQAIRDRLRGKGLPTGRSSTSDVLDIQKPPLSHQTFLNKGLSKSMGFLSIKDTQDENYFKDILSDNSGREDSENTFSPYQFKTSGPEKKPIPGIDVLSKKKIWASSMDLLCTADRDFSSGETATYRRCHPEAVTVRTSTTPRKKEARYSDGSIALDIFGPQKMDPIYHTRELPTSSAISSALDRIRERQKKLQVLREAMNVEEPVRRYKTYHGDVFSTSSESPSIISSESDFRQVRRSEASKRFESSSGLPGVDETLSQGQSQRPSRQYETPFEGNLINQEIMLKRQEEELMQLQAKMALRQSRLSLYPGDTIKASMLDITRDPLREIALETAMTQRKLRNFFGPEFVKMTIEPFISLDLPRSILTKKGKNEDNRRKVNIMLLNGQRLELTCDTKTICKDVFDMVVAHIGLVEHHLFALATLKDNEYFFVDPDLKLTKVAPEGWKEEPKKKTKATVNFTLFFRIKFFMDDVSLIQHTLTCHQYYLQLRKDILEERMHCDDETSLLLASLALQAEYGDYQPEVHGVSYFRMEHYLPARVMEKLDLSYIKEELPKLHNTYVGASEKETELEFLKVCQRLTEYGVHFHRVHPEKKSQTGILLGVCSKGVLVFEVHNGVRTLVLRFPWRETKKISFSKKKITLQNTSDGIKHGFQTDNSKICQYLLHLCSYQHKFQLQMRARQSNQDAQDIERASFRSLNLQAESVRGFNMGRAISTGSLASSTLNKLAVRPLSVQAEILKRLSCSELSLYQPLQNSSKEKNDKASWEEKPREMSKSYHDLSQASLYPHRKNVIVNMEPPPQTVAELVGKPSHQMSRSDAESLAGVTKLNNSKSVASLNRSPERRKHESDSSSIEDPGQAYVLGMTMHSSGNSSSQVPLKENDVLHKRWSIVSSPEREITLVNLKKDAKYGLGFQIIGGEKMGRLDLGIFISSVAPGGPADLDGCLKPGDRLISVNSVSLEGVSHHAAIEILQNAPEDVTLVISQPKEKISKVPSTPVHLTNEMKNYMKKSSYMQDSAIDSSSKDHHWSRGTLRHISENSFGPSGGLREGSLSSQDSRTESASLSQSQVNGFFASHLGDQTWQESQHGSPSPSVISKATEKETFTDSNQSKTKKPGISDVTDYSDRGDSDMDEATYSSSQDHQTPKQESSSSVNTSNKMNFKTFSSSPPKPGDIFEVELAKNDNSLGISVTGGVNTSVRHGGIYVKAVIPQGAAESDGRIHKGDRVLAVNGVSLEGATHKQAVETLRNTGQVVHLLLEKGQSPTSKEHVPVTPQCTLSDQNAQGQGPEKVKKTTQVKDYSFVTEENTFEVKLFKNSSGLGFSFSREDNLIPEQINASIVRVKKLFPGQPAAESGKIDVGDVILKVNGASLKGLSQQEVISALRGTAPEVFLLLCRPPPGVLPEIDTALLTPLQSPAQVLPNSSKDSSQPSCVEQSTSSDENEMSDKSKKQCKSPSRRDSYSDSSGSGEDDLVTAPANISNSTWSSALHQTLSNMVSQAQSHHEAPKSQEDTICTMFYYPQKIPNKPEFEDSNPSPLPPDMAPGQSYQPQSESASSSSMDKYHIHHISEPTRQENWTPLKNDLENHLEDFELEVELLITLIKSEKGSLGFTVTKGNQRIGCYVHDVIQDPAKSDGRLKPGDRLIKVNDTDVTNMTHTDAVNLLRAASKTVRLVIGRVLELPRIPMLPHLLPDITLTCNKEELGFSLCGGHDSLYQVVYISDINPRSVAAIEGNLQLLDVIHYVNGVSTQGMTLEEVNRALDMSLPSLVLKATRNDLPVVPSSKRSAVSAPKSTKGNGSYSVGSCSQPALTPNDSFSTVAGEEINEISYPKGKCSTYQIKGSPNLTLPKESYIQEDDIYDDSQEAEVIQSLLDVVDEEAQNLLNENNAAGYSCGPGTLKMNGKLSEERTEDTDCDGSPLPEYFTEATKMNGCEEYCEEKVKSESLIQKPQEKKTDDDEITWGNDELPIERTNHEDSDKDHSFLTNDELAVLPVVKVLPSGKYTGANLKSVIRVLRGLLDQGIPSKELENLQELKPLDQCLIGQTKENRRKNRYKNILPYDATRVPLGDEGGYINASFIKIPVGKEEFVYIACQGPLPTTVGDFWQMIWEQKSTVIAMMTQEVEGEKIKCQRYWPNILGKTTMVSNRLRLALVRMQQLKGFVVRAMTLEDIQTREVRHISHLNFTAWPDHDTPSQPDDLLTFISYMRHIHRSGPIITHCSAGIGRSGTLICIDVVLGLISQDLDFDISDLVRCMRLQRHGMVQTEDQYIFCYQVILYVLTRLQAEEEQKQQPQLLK

[3] = molecular target: Receptor-type tyrosine-protein phosphatase epsilon (Homo sapiens, UniProt P23469); experiment: Inhibition of His-tagged PTPepsilon (unknown origin) expressed in Escherichia coli BL21 cells using para-nitrophenyl phosphate as substrate incubated for 5 to 10 mins by microplate reader based spectrophotometric analysis
Chain of Receptor-type tyrosine-protein phosphatase epsilon (P23469 whole entry): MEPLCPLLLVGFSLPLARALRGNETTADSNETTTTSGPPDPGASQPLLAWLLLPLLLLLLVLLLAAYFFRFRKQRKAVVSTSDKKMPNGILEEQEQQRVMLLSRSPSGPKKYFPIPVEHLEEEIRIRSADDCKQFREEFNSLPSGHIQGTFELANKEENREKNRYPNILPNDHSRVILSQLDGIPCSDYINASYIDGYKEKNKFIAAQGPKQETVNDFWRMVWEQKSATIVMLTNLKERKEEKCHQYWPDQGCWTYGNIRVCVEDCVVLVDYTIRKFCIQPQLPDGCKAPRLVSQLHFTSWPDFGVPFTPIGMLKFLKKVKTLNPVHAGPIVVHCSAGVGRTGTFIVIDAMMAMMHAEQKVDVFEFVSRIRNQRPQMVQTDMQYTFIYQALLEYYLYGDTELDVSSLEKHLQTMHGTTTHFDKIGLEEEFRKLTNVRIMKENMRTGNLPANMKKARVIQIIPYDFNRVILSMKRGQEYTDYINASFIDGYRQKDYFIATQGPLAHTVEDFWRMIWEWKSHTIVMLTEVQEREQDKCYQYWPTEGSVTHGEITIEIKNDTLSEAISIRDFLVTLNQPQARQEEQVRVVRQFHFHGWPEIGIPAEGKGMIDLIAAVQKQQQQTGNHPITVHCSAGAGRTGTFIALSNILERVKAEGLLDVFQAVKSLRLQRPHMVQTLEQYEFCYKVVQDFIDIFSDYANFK

[4] = molecular target: T1, Tyrosine-protein phosphatase non-receptor type 11 (Homo sapiens, UniProt Q06124); experiment: Inhibition of His-tagged SHP2 (unknown origin) expressed in Escherichia coli BL21 cells using para-nitrophenyl phosphate as substrate incubated for 5 to 10 mins by microplate reader based spectrophotometric analysis
T1 sequence (Q06124 whole entry): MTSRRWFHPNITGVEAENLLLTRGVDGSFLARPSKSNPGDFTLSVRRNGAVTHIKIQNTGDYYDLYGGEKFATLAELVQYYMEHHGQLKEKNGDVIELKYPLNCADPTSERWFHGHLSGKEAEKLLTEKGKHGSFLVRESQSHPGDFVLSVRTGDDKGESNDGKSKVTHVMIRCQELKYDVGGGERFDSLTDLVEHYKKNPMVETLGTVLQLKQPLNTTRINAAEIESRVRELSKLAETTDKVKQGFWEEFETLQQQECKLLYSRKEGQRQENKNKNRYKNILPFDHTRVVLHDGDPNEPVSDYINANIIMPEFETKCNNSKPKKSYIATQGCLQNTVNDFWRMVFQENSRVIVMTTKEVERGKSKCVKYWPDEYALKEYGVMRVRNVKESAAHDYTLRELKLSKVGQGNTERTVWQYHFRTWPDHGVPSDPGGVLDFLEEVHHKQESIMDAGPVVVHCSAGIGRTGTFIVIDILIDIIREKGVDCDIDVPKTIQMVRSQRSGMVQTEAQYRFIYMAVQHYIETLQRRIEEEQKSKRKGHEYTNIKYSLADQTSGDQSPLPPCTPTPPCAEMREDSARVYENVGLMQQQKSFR

[5] = molecular target: T2, Tyrosine-protein phosphatase non-receptor type 2 (Homo sapiens, UniProt P17706); experiment: Inhibition of His-tagged TC-PTP (unknown origin) expressed in Escherichia coli BL21 cells using para-nitrophenyl phosphate as substrate incubated for 5 to 10 mins by microplate reader based spectrophotometric analysis
T2 sequence (P17706 whole entry): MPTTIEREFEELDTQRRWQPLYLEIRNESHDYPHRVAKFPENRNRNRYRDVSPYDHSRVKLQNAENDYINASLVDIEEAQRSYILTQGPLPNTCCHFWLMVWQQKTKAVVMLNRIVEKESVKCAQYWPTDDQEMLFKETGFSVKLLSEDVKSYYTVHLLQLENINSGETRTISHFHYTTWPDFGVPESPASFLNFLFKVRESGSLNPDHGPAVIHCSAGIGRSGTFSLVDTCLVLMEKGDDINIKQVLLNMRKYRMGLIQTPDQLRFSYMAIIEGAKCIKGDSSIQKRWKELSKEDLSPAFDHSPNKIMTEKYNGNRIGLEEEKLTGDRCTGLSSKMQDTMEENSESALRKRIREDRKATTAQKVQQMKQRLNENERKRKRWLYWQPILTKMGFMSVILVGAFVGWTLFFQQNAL

[6] = molecular target: T3, Receptor-type tyrosine-protein phosphatase C (Homo sapiens, UniProt P08575); experiment: Inhibition of His-tagged CD45 (unknown origin) expressed in Escherichia coli BL21 cells using para-nitrophenyl phosphate as substrate incubated for 5 to 10 mins by microplate reader based spectrophotometric analysis
T3 sequence (P08575 whole entry): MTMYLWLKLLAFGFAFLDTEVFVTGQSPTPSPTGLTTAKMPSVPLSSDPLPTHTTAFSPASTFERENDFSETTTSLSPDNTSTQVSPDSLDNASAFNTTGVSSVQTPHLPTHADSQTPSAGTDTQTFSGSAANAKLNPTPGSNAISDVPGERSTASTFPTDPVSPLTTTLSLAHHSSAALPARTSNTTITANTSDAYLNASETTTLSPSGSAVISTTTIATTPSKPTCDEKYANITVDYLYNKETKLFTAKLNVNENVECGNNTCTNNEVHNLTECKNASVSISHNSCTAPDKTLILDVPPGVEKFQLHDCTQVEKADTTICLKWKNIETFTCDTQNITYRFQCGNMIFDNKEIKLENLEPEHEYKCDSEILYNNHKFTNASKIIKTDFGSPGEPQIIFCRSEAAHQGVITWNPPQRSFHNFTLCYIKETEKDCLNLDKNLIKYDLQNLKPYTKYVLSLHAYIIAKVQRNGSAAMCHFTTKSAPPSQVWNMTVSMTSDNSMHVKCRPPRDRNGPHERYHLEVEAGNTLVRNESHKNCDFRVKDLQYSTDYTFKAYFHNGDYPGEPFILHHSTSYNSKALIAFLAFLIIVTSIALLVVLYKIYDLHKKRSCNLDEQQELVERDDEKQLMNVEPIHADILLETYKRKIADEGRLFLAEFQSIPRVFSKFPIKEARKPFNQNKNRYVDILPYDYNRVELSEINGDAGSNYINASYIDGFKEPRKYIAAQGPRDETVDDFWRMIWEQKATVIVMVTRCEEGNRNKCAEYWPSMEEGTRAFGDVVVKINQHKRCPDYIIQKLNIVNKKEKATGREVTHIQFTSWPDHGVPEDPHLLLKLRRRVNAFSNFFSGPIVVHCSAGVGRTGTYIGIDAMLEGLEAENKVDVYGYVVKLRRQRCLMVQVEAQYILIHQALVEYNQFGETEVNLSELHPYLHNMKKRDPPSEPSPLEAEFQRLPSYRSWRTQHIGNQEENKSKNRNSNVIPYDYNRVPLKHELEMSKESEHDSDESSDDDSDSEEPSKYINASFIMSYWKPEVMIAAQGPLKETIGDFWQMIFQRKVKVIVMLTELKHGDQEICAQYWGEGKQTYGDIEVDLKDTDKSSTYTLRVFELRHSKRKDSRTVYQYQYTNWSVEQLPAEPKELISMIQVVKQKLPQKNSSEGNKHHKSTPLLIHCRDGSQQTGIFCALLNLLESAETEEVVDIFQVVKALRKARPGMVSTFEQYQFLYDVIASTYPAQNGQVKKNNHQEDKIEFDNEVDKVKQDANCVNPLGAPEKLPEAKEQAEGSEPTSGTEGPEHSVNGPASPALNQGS

Row | SMILES | pIC50 [1] | pIC50 [2] | pIC50 [3] | pIC50 [4] | pIC50 [5] | pIC50 [6]
1 | O=C(Nc1cc(C(F)(F)F)cc(C(F)(F)F)c1)C(c1ccccc1)S(=O)(=O)O (stereo not drawn) | < 3.70 | 4.12 | < 3.70 | < 3.70 | < 3.70 | < 3.70
2 | O=C(Nc1ccc(OCc2ccccc2)c(Cl)c1)C(c1ccccc1)S(=O)(=O)O (stereo not drawn) | < 3.70 | – | < 3.70 | – | < 3.70 | < 3.70
3 | Cc1c(Br)cc(NC(=O)C(c2ccccc2)S(=O)(=O)O)cc1Br (stereo not drawn) | < 3.70 | < 3.70 | < 3.70 | < 3.70 | < 3.70 | < 3.70
4 | O=C(Nc1nc2ccc([N+](=O)[O-])cc2s1)C(c1ccccc1)S(=O)(=O)O (stereo not drawn) | < 4.00 | < 4.00 | < 4.00 | < 4.00 | < 4.00 | < 4.00
5 | O=C(Nc1ccc(-n2ccnc2)cc1)C(c1ccccc1)S(=O)(=O)O (stereo not drawn) | < 4.00 | < 4.00 | < 4.00 | < 4.00 | < 4.00 | < 4.00
